Several values for one entry are separate records, joined by “and”; a condition that tells them apart may be missing. Equal values may be shown once.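 All cell lines were grown in 96-well plates and treated with compound for 48 hours. GI50 marks 50% less growth. At the TGI there is no net growth.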 Where a SMILES comes first, the peptide text is derived from it. [ ]: non-standard residue; d: D form. The star is where a group is joined. ξ: configuration not given here. dIva = CC[C@@](C)(N)C(=O)O; Aib = CC(C)(N)C(=O)O; ξP = O=C(O)C1CCCN1; βAla = NCCC(=O)O; X5 = OCN*
Tests used:
Test in all cases: DTP human tumour cell line panel, 48 h
SK-MEL-2 melanoma = test system: SK-MEL-2 melanoma
CAKI-1 renal = test system: CAKI-1 renal
SNB-19 CNS = test system: SNB-19 CNS
SK-MEL-28 melanoma = test system: SK-MEL-28 melanoma
PC-3 prostate = test system: PC-3 prostate
NCI-H460 lung = test system: NCI-H460 lung
SF-268 CNS = test system: SF-268 CNS
TK-10 renal = test system: TK-10 renal
IGROV1 ovarian = test system: IGROV1 ovarian
RPMI-8226 leukemia = test system: RPMI-8226 leukemia

| SMILES | GI50 (SK-MEL-2 melanoma) [µM] | TGI (SK-MEL-2 melanoma) [µM] | GI50 (CAKI-1 renal) [µM] | TGI (CAKI-1 renal) [µM] | GI50 (SNB-19 CNS) [µM] | TGI (SNB-19 CNS) [µM] | GI50 (SK-MEL-28 melanoma) [µM] | TGI (SK-MEL-28 melanoma) [µM] | GI50 (PC-3 prostate) [nM] | TGI (PC-3 prostate) [µM] | GI50 (NCI-H460 lung) | TGI (NCI-H460 lung) [µM] | GI50 (SF-268 CNS) [µM] | TGI (SF-268 CNS) | GI50 (TK-10 renal) [µM] | TGI (TK-10 renal) [µM] | GI50 (IGROV1 ovarian) [µM] | TGI (IGROV1 ovarian) [µM] | TGI (RPMI-8226 leukemia) [µM] | GI50 (RPMI-8226 leukemia) [nM] |
| --- | --- | --- | --- | --- | --- | --- | --- | --- | --- | --- | --- | --- | --- | --- | --- | --- | --- | --- | --- | --- |
| CC[C@@](C)(NC(=O)[C@H](C)NC(=O)CCNC(=O)C(C)(C)NC(=O)[C@H](C)NC(=O)[C@@H]1CCCN1C(=O)[C@@](C)(CC)NC(=O)[C@H](Cc1ccccc1)NC(=O)C1CCCN1C(=O)C(C)(C)NC(=O)C1CCCN1C(=O)C(C)(C)NC(C)=O)C(=O)NCCC(=O)N[C@@H](CC(C)C)C(=O)NC(C)(C)C(=O)NCCC(=O)N[C@@H](CC(C)C)C(=O)NC(C)(C)C(=O)NC(C)(C)C(=O)N[C@@H](CC(C)C)C(=O)NCCC(=O)NCO (some centres not stated) (Ac-[Aib][ξP][Aib][ξP]F[dIva]PA[Aib][βAla]A[dIva][βAla]L[Aib][βAla]L[Aib][Aib]L[βAla]-X5) | 0.202 | 0.427 | 0.231 | 0.448 | 0.0952 | 0.304 | 0.187 | 0.431 | 76.5 | 0.264 | 144 nM | 0.381 | 0.143 | 0.368 µM | 0.153 | 0.353 |  |  |  |  |
| CC1CC2(C)CC(=O)C1C1C(=O)N(CCN3CCOCC3)C(=O)C12 (configuration not stated) | > 100 | > 100 | > 100 | > 100 | > 100 | > 100 | > 100 | > 100 | > 100000 | > 100 |  |  | > 100 | > 100 µM | > 100 | > 100 | > 100 | > 100 |  |  |
| N#CCCn1c(CCC(=O)Nc2ccc(Cl)cc2Cl)n[nH]c1=S |  | > 100 |  | > 100 |  | > 100 |  | > 100 |  |  |  | > 100 |  | > 100 µM |  | > 100 |  | > 100 | > 100 |  |
| COc1ccc(S(=O)(=O)N/N=C/CN2C(=O)c3ccccc3C2=O)cc1 |  | > 100 |  | > 100 |  | > 100 |  |  |  |  |  | > 100 |  |  |  |  |  | > 100 | > 100 |  |
| CC(=O)Nc1ccccc1S(=O)c1ccccc1 (configuration not stated) |  | > 100 |  | > 100 |  | > 100 |  | > 100 |  |  |  | > 100 |  | > 100 µM |  | > 100 |  | > 100 | > 100 |  |
| CN/N=C(/CC(=O)c1sc(NNC(C)=O)nc1C)C(=O)Nc1ccc(OC)cc1OC |  | > 100 |  | > 100 |  | > 100 |  | > 100 |  |  |  | > 100 |  | > 100 µM |  | > 100 |  | > 100 | > 100 |  |
| CC(C)CC1NC(=O)C(C(C)C)NC(=O)CC(C)COC(=O)C(CC(C)C)N(C)C(=O)C(C(C)C)NC(=O)C(C(C)C)OC1=O (configuration not stated) |  | > 50 |  | > 50 |  | > 50 |  | > 50 |  | > 50 |  | > 50 |  | > 50 µM |  |  |  | > 50 |  |  |
| C=C1CC(CC(=O)C(C)CC2CC(=C)C(=O)O2)OC1=O (configuration not stated) |  | 25.3 |  |  |  | > 100 |  | 30.4 |  |  |  | > 100 |  | 48.6 µM |  | 33.9 |  | > 100 |  |  |
| CC(=O)N1CCN(C=S)CC1 |  |  |  | > 100 |  | > 100 |  | > 100 |  |  |  | > 100 |  | > 100 µM |  | > 100 |  | > 100 | > 100 |  |
| ClCCCN1CCCCC1CCl (configuration not stated) |  | > 100 |  | > 100 |  | > 100 |  | > 100 |  |  |  | > 100 |  | > 100 µM |  | > 100 |  | > 100 | > 100 |  |
| COc1ccc2c(c1)O/C(=C\c1ccc([N+](=O)[O-])s1)C2=O |  | > 27 |  |  | > 22 | > 100 | 17.1 | > 100 | 1810 | > 100 | 2320 nM | > 100 | 1.8 | > 19.8 µM | > 22.5 | > 100 | 1.14 |  | > 100 | 1690 |
| O=C(Nc1ccc(N2CCNCC2)cn1)c1[nH]ncc1Nc1ncnc2sc3c(c12)CCC3 | 13.6 | 35.1 | 1.4 | 3.26 |  |  |  |  |  |  | 1580 nM | 3.48 |  |  | 1.77 | 3.36 |  |  | 5.82 | 1940 |
| O=C(OCc1ccccc1)c1ccccc1-c1c2ccc(=O)cc-2oc2cc(OCc3ccccc3)ccc12 |  | 46.7 |  | 58.5 |  | > 100 |  | 61 |  |  |  | 35.8 |  | > 100 µM |  |  |  | 44.3 | 57.7 |  |
| O=[N+]([O-])c1ccc2nc(=S)[nH]n2c1 |  | > 100 |  | > 100 |  | > 100 |  |  |  |  |  | > 100 |  | > 100 µM |  | > 100 |  | > 100 | > 100 |  |
| CN(C)c1ccc(/C=c2\sc3nnc(Cc4ccccc4)n3c2=O)cc1 | > 100 | > 100 | > 100 | > 100 | > 100 | > 100 | > 100 | > 100 |  |  | > 100000 nM | > 100 | > 10 | > 10 µM and 57.8 µM | > 100 | > 100 | > 100 | > 100 | > 100 | > 100000 |
| COc1ccc([Se]c2ccc(OC)cc2)cc1 |  | > 100 |  | > 100 |  | > 100 |  | > 100 |  |  |  | > 100 |  | > 100 µM |  | > 100 |  | > 100 | > 100 |  |
| CCC12C=CCN3CCC4(C(=C(C(=O)OC)C1)Nc1ccccc14)[C@H]32 (some centres not stated) |  | 52 |  | > 100 |  | 75 |  | > 100 |  |  |  | 41.9 |  | 45.4 µM |  | > 100 |  | > 100 |  |  |
| NNC(=O)N/N=C1/C(=O)N(c2ccc(Cl)c(Cl)c2)C(=O)C(=O)C1c1nc2ccccc2o1 (configuration not stated) |  | > 100 |  | > 100 |  | > 100 |  | > 100 |  |  |  |  |  | > 100 µM |  | > 100 |  | > 100 |  |  |
| NC(N)=NC(N)=NCc1ccco1 | > 1250 | > 1250 | 758 | > 1250 | > 1250 | > 1250 | > 1250 | > 1250 |  |  | 866000 nM and 766000 nM | > 1250 | > 1250 | > 1250 µM | > 1250 | > 1250 | 854 | > 1250 |  | 818000 |
| C#Cc1ccccc1N1C(=O)C=CC1=O |  | > 100 |  | > 100 |  | > 100 |  | > 100 |  |  |  | > 100 |  | > 100 µM |  | > 100 |  | > 100 | > 100 |  |

Source: PubChem BioAssay (NCI)
